Patent publication US20050203065A1, “Method of treating ischemia reperfusion injury using adenosine receptor antagonists” (priority 2002, published 2005)
Read-outs that look alike come from different tables or passages of the source.

Columns and labels:
[1] = target: T1, human A2B adenosine receptors (Homo sapiens, UniProt P29275); assay: Radioligand competitive binding, ADENOSINE A2B (HEK293), [3H]-DPCPX (Table 8); set-up: purchased Receptor Biology; host or cells: HEK 293; details: [3H]-DPCPX 30-40 nM
T1 sequence (P29275 1-332): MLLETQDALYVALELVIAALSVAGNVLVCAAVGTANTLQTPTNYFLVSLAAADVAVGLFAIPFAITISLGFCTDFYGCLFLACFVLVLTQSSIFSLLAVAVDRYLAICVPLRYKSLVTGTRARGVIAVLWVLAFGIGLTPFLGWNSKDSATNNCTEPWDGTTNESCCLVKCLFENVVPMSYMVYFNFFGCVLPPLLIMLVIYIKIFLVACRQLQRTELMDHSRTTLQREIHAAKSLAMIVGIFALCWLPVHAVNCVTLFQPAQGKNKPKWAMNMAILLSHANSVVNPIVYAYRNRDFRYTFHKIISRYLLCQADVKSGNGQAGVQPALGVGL
Experimental: Membranes (50 μg membrane protein), radioligands, and varying concentrations of competing ligands were incubated in triplicate in 0.1 mL buffer HE plus 2 units/mL adehosine, deaminase for 2 hours at 21° C. The radioligand used for competitive binding assays for human A2B adenosine receptors was [^3H]-8-cyclopentyl-1,3-dipropyxanthine ([^3H]-DPCPX, 30-40 nM) (NEN, Boston, Mass.). Nonspecific binding was measured in the presence of 10 μM 5′N-ethylcarboxamidoadenosine (NECA; from RBI-Sigma, Natick, Mass.). Binding assays were terminated by filtration over Whatman GF/C glass fiber filters using a BRANDEL cell harvester (Gaithersburg, Md.). The filters were rinsed three times with 3 to 4 mL ice-cold 10 mM Tris-HCl, pH 7.4 and 5 mM magnesium chloride (MgCl2) at 4° C. and were counted in a Wallac β-counter (Perkin Elmer, Boston, Mass.).
Competitive binding data were fit to a single site binding model and plotted using Prizm GraphPad. The Cheng-Prusoff equation KI=IC50/(1+[I]/KD) was used to calculate KI values from IC50 values, where KI is the affinity constant for the competing ligand, [I] is the concentration of the free radioligand, and KD is the affinity constant for the radioligand (Cheng and Prusoff 1973).

[2] = tested on: open-chest, barbital-anesthetized dogs; assay: Protocol II (preconditioning): four 5-minute occlusion/reperfusion cycles before 60-minute occlusion and 3 hours reperfusion in dogs; assay type: in vivo, dog; details: for Effect on the protective effects of ischemic preconditioning: 1 mg/kg i.v. bolus + 10 μg/kg/min
Experimental: Preconditioning was elicited by four 5-minute occlusion/5-minute reperfusion cycles produced 10 minutes before the 60-minute occlusion.

[3] = tested on: open-chest, barbital-anesthetized dogs; assay: Protocol III (reperfusion): 60 minutes occlusion and 3 hours reperfusion, drug from 10 minutes before release of occlusion, dogs; assay type: in vivo, dog; details: for Infarct size expressed as a percentage of the risk region, in words: administration during the early phase of reperfusion
Experimental: (§2) The studies were performed in open-chest, barbital-anesthetized dogs instrumented to measure heart rate, blood pressure, left ventricular pressure, and regional myocardial blood flow (radioactive microspheres). A mechanical occluder was placed around a proximal portion of the left anterior descending coronary artery to produce ischemia and reperfusion. At the end of the experiments, infarct size was determined-by histochemical staining (patent blue dye and triphenyltetrazolium) and expressed as a percentage of the region at risk or as a percentage of the entire left ventricle.
In the reperfusion protocol (see FIG. 3, protocol III), the dogs were subjected to 60 minutes of coronary artery occlusion followed by three hours of reperfusion. […] The antagonists were administered at a dose of 1 mg/kg i.v. bolus followed by an infusion of 10 μg/kg/min for one hour.

[4] = target: T2, recombinant canine A1 adenosine receptors (Canis lupus familiaris, UniProt P11616); assay: Radioligand competition binding, canine A1 receptor (3H-CPX), transfected HEK 293 membranes
T2 construct: expressed in transfected cells
T2 sequence (P11616 1-326): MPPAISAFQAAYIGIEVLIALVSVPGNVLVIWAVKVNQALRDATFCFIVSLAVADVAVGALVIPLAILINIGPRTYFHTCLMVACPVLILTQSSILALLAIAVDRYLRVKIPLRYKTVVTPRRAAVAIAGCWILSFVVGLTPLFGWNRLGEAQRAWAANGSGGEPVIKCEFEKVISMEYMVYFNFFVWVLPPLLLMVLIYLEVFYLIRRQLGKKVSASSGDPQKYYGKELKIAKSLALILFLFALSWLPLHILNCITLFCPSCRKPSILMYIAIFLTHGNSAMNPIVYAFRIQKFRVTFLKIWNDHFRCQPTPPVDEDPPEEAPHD
Experimental: (§1) Membranes (40-70 μg membrane protein), radioligands, and varying concentrations of competing ligands were incubated in triplicate in 0.1 ml buffer HE plus 2 units/mL adenosine deaminase for 2.5 hours at 21° C. The radioligands used for competitive binding assays were: [^3H]-8-cyclopentyl-1,3-dipropyxanthine ([^3H]-DPCPX) (NEN, Boston, Mass.) for A1 and A2b adenosine receptors, [^3H]-4-(2-[7-amino-2-(furyl)(1,2,4)triazole(2,3-a)(1,3,5)triazin-5-ylaminoethyly)phenol ([^3H] ZM241385) for A2a adenosine receptors (Tocris, Bristol, UK), and [^125Iodine]-labeled N6-(4-aminobenzyl)-9-(5-(methylcarbonyl)-β-D-ribofuranosyl) adenine ([^125I]-AB-MECA) or [^3H]-R-N^6-phenylisopropyladenosine (H^3R]-R-PIA) for A3 adenosine receptors (both from NEN, Boston, Mass.). Nonspecific binding was measured in the presence of 10 μM 5′N ethylcarboxamidoadenosine (NECA, from RBI-Sigma, Natick, Mass.) for A1 and A2b receptors, or 10 μM xanthine amino congener (XAC, from RBI-Sigma, Natick, Mass.) for A2a receptors. Binding assays were terminated by filtration over Whatman GF/C glass fiber filters using a BRANDEL cell harvester (Gaithersburg, Md.).

[5] = target: T3, recombinant canine A2a adenosine receptors (Canis lupus familiaris, UniProt P11617); assay: Radioligand competition binding, canine A2a receptor (3H-ZM 241385), transfected HEK 293 membranes
T3 construct: expressed in transfected cells
T3 sequence (P11617 whole entry): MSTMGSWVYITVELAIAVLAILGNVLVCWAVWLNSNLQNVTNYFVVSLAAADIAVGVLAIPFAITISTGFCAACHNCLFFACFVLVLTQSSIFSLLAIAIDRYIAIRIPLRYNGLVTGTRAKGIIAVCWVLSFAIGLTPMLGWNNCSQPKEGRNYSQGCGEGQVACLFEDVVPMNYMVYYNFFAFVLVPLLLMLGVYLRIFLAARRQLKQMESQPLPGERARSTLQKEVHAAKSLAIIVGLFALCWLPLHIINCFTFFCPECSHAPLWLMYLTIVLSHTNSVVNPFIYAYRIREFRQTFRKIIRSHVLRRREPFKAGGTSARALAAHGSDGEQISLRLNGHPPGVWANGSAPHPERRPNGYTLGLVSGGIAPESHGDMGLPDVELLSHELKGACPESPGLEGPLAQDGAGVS
Experimental: Membranes (40-70 μg membrane protein), radioligands, and varying concentrations of competing ligands were incubated in triplicate in 0.1 ml buffer HE plus 2 units/mL adenosine deaminase for 2.5 hours at 21° C. […] Nonspecific binding was measured in the presence of 10 μM 5′N ethylcarboxamidoadenosine (NECA, from RBI-Sigma, Natick, Mass.) for A1 and A2b receptors, or 10 μM xanthine amino congener (XAC, from RBI-Sigma, Natick, Mass.) for A2a receptors. Binding assays were terminated by filtration over Whatman GF/C glass fiber filters using a BRANDEL cell harvester (Gaithersburg, Md.).

[6] = target: T4, recombinant canine A3 adenosine receptors (Canis lupus familiaris, UniProt Q28309); assay: Radioligand competition binding, canine A3 receptor (R-PIA), transfected HEK 293 membranes; details: mean ± SEM, n = 3
T4 construct: expressed in transfected cells
T4 sequence (Q28309 1-314): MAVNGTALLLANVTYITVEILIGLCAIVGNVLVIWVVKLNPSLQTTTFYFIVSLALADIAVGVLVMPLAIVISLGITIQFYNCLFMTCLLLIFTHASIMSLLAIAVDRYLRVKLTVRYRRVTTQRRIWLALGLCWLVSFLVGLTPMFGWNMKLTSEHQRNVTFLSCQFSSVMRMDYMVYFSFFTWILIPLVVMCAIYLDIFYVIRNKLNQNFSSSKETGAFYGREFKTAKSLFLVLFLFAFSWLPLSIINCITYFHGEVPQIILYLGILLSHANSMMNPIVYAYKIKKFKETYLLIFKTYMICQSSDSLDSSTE
Experimental: as §1, with “Md.). The-filters were rinsed three times with 3-4 mL ice-cold 10 mM Tris-HCl, pH 7.4 and 5 mM magnesium chloride (MgCl2) at 4° C., and were counted in a Wallac β-counter (Perkin Elmer, Boston, Mass.).” for “Md.).”

[7] = tested on: open-chest, barbital-anesthetized dogs; assay: Protocol I (pretreatment): 60 minutes of coronary artery occlusion and 3 hours of reperfusion in dogs
Experimental: as §2
In the pretreatment protocol (see FIG. 1, protocol I), the dogs were subjected to 60 minutes of coronary artery occlusion and 3 hours or reperfusion after which the hearts were removed and infarct size was assessed. […] All of the antagonists were administered at a dose of 1 mg/kg as an i.v. bolus followed by and infusion of 10 μg/kg/min continued until immediately before reperfusion (70 minutes total).

[8] = target: T5, recombinant human A3 adenosine receptors (Homo sapiens, UniProt P0DMS8); assay: Radioligand binding, human A3 receptor ([125I]-AB-MECA), incl. one-point binding at 10 μM; details: read-out: Percent (%) Inhibition at 10 μM Antagonist, A3
T5 construct: expressed in transfected cells; host or cells: HEK 293
T5 sequence (P0DMS8 1-318): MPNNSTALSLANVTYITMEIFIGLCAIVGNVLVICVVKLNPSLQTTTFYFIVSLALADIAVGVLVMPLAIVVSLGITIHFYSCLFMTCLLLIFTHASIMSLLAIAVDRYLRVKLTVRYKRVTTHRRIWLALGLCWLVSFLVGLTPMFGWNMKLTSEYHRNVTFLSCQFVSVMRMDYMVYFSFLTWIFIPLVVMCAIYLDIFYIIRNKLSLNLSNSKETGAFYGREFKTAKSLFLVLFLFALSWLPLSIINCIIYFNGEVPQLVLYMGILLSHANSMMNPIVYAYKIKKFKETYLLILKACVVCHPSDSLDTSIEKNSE

## CCCn1c(=O)c2nc(C34CCC(CCCC(=O)O)(CC3)CC4)[nH]c2n(CCC)c1=O [Compound 15]
[1]
  Ki: 127 nM

## CCCn1c(=O)c2[nH]c(C3CCCC3)nc2n(CCC)c1=O [CPX, 8-Cyclopentyl-1,3-dipropyl-3,7-dihydro-purine-2,6-dione]
[2]; Protocol II
  Addition to the protective effect of ischemic preconditioning: added to the protective effect
  Effect on the protective effects of ischemic preconditioning: did not block
[2]; Protocol II (preconditioning)
  Relationship between infarct size and collateral blood flow compared to preconditioned control: shifted downward further
[3]
  Infarct size expressed as a percentage of the entire left ventricle, in words: a significant reduction in infarct size was not observed
  Relationship between infarct size and collateral blood flow compared to control group: shifted downward
  Infarct size expressed as a percentage of the risk region, in words: reduced significantly
[3]; 1 mg/kg i.v. bolus + 10 μg/kg/min for one hour from 10 minutes before release of occlusion
  Reduction in infarct size (percentage of the risk region): 42%
[4]
  Ki: 18.1 ± 4.4 nM
[5]
  Ki: 162 ± 22 nM
[6]
  Ki: 1960 nM
[7]
  Relationship between infarct size and transmural collateral blood flow compared to control group: shifted downward
[7]; 1 mg/kg i.v. bolus + 10 μg/kg/min from 10 minutes before occlusion
  Infarct size (percentage of risk region or of left ventricle) compared with control, in words: significantly smaller
[7]; 1 mg/kg i.v. bolus + 10 μg/kg/min from 10 minutes before occlusion, vs control
  Infarct size reduction: 51%

## CCCn1c(=O)c2[nH]c(C34CCC(/C=C/C(=O)O)(CC3)CC4)nc2n(CCC)c1=O [Compound 12]
[1]
  Ki: 100 nM

## CCCn1c(=O)c2[nH]c(C34CCC(/C=C/C(=O)O)(CC3)OC4)nc2n(CCC)c1=O [Compound 13]
[1]
  Ki: 117 nM

## CCCn1c(=O)c2nc(C34CCC(C5=NOC(C(=O)O)C5)(CC3)CC4)[nH]c2n(CCC)c1=O (centres unmarked) [Compound 16]
[1]
  Ki: 131 nM

## CCCn1c(=O)c2[nH]c(C3CC4CCC(C3)C4NCC(=O)OCC)nc2n(CCC)c1=O (centres unmarked) [Compound 11]
[1]
  Ki: 93 nM

## CCCn1c(=O)c2[nH]c(C34CCC(CCc5nnn[nH]5)(CC3)CC4)nc2n(CCC)c1=O [Compound 17]
[1]
  Ki: 160 nM

## CCCn1c(=O)c2nc(C34CCC(CCC(=O)Nc5nnn[nH]5)(CC3)CC4)[nH]c2n(CCC)c1=O [Compound 10]
[1]
  Ki: 85.6 nM

## CCCn1c(=O)c2[nH]c(C34CCC(CN(C)C)(CC3)CC4)nc2n(CCN)c1=O [Compound 4]
[1]
  Ki: 39 nM

## CCCn1c(=O)c2[nH]c(C34CCCC(O)(CC3)CC4)nc2n(CCC)c1=O [Compound 6]
[1]
  Ki: 47 nM

## CCCn1c(=O)c2[nH]c(C34CCC(CN)(CC3)CC4)nc2n(CCC)c1=O [Compound 8]
[1]
  Ki: 55.2 nM

## CCCn1c(=O)c2[nH]c([C@H]3C[C@@H]4C[C@H]3[C@H]3O[C@@H]43)nc2n(CCC)c1=O [BG 9719, 8-(2S-5,6-exo-epoxy-endo-norborn-2-yl)-1,3-dipropyl-3,7-dihydro-purine-2,6-dione]
[2]; Protocol II
  Effect on the protective effects of ischemic preconditioning: did not block
[3]
  Infarct size expressed as a percentage of the risk region, in words: no protective effect
[4]; canine, mean ± SEM, n = 3, 3H-CPX, read-out: Ki, A1
  Ki: 35.8 ± 4 nM
[5]; canine, mean ± SEM, n = 3, 3H-ZM 241385, read-out: Ki, A2a
  Ki: 2820 nM
[6]
  Ki: 19100 nM
[8]
  inhibition at 10 µM: 40.6%
[7]
  Relationship between infarct size and transmural collateral blood flow compared to control group: similar

## CCCn1c(=O)c2[nH]c(C34CCC(O)C(CC3)C4)nc2n(CCC)c1=O (centres unmarked) [Compound 9]
[1]
  Ki: 76.9 nM

## CCCn1c(=O)c2[nH]c(C34CCC(OCCC(=O)O)(CC3)C4)nc2n(CCC)c1=O [Compound 14]
[1]
  Ki: 125 nM

## CCCn1c(=O)c2[nH]c(C3C4CC5C(C4CCCN(C)C)C53)nc2n(CCC)c1=O (centres unmarked) [Compound 1]
[1]
  Ki: 14.6 nM

## CCCn1c(=O)c2[nH]c(C34CCC(CCC(=O)O)(CC3)CC4)nc2n(CCC)c1=O [Compound 7]
[1]
  Ki: 51.4 nM

## CCCn1c(=O)c2[nH]c(C34CCC(O[C@@H](C)C(=O)O)(CC3)CC4)nc2n(CCC)c1=O [Compound 5]
[1]
  Ki: 45.1 nM

## CCCn1c(=O)c2[nH]c(-c3ccc(C#N)cc3)c(O)c2n(CCC)c1=O [Compound 3]
[1]
  Ki: 27 nM

## CCCn1c(=O)c2[nH]c(C34CCCC(OCC(=O)O)(CC3)CC4)nc2n(CCC)c1=O [Compound 18]
[1]
  Ki: 168 nM

## CCCn1c(=O)c2[nH]c(C34CCC(OCC(=O)O)(CC3)C4)nc2n(CCC)c1=O [Compound 2]
[1]
  Ki: 15.2 nM
